From PMC12663368 (Nature Communications, 2025)

Tested on: Mpro-WT and Mpro-Δ23G 1:1 mixture
Conditions: hamster, in vivo

Work on `CC(C)(C)[C@H](NC(=O)C(F)(F)F)C(=O)N1C[C@H]2[C@@H]([C@H]1C(=O)N[C@H](C#N)C[C@@H]1CCNC1=O)C2(C)C` [nirmatrelvir] yielded a Mpro-WT dominance greater than 97%.
